Legend:
Format in all cases: biochemical
JAK1 = target: T1, JAK1 (Homo sapiens, UniProt P23458); assay: JAK1 enzyme inhibition test (LANCE method); details: 1 μM test compound; read-out: JAK1 enzyme inhibitory activity (%, 1 μM)
T1 construct: purchased Invitrogen
Method: (§1) JAK1 enzyme inhibitory activity of test compounds was measured by the LANCE method (PerkinElmer). First, a test compound diluted with assay buffer (50 mM HEPES (pH 7.5), 10 mM MgCl2, 1 mM EGTA, 2 mM DTT, 0.01% Tween20, 0.01% BSA) was added to a 384-well plate by 2 μL each. Then, a JAK1 (Invitrogen) solution and a fluorescence-labeled peptide substrate (ULight-JAK1, PerkinElmer) solution diluted with assay buffer to 187.5 ng/mL and 300 nM, respectively, were added by 2 μL each. Then, an enzyme reaction was started by adding 2 μL each of ATP solution prepared with assay buffer to 150 μM. After the reaction at room temperature for 1 hr, Detection Buffer (PerkinElmer) prepared to contain 20 mM EDTA, 4 nM europium-labeled anti-phosphotyrosine antibody (PerkinElmer) was added by 6 μL each. After standing at room temperature for 1 hr, fluorescence intensity (excitation wavelength 340 nm, fluorescence wavelength 665 nm, delay time 100 microseconds) was measured by a plate reader, Envision (PerkinElmer). The inhibitory activity of each compound was calculated as a relative activity value to the fluorescence intensity of a well free of enzyme as 100% inhibition.

JAK2 = target: T2, JAK2 (Homo sapiens, UniProt O60674); assay: JAK2 enzyme inhibition test (LANCE method); details: 1 μM test compound; read-out: JAK2 enzyme inhibitory activity (%, 1 μM)
T2 construct: purchased Invitrogen
T2 sequence (O60674 whole entry): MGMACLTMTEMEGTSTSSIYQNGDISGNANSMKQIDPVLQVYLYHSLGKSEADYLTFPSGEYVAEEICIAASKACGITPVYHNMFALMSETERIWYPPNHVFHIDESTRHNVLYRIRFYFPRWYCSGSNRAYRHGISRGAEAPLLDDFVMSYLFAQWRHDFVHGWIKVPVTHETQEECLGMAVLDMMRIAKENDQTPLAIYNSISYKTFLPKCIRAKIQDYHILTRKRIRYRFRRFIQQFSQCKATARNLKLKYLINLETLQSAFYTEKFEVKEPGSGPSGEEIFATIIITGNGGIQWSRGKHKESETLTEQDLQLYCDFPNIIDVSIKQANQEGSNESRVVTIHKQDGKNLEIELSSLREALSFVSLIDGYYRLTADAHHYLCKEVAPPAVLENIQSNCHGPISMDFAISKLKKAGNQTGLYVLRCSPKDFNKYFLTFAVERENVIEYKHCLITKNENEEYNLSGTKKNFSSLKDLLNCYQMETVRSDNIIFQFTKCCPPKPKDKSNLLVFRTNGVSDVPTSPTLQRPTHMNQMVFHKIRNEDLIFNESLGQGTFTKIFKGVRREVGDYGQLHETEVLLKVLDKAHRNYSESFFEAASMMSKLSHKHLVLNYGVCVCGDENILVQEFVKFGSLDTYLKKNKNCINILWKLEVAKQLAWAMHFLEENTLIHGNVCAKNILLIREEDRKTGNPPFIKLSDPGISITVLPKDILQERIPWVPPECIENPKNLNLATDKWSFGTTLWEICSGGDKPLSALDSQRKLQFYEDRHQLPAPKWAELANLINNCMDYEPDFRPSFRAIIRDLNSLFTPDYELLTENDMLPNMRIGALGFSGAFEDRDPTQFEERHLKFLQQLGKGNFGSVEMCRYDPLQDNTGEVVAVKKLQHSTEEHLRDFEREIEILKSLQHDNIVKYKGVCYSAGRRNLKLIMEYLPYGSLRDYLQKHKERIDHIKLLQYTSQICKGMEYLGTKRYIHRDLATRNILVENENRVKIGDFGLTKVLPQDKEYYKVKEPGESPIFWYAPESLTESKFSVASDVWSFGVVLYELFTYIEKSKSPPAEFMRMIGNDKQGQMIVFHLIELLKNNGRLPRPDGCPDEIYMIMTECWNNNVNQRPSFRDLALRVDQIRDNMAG
Method: as §1, with “JAK2 enzyme” for “JAK1 enzyme”, “a JAK2” for “a JAK1”, “to 6” for “to 187.5”, “to 45” for “to 150”

JAK3 = target: T3, JAK3 (Homo sapiens, UniProt P52333); assay: JAK3 enzyme inhibition test (LANCE method); details: 1 μM test compound; read-out: JAK3 enzyme inhibitory activity (%, 1 μM)
T3 construct: purchased Invitrogen
T3 sequence (P52333 1-1124): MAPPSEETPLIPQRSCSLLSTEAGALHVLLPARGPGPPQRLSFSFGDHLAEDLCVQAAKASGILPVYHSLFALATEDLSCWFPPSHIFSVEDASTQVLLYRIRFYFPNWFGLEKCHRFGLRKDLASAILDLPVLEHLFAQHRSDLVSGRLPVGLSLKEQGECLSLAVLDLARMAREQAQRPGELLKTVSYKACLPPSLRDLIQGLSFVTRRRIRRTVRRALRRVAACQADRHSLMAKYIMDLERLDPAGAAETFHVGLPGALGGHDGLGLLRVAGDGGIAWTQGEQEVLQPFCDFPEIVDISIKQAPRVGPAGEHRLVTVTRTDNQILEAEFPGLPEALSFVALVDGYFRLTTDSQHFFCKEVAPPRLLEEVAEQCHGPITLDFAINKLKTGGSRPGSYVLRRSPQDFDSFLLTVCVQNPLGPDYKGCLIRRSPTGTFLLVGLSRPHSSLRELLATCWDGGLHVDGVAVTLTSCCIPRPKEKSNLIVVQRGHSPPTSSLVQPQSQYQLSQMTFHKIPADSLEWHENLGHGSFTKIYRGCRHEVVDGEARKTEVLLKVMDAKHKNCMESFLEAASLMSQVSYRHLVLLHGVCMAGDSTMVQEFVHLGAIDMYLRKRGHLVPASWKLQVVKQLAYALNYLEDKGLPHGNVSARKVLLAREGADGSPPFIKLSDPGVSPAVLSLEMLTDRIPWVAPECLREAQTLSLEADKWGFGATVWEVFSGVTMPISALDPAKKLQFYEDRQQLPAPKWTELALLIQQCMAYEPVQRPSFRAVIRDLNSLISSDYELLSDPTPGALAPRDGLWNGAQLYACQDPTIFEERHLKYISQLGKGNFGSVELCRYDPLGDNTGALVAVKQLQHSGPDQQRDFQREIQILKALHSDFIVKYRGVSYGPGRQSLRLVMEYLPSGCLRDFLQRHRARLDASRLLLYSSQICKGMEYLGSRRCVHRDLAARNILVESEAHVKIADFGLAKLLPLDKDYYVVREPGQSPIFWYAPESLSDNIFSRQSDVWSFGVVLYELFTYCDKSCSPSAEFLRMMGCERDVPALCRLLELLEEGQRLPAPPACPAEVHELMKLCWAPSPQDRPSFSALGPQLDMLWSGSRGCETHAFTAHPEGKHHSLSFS
Method: as §1, with “JAK3 enzyme” for “JAK1 enzyme”, “a JAK3” for “a JAK1”, “to 12” for “to 187.5”, “to 15” for “to 150”

TYK2 = target: T4, TYK2 (Homo sapiens, UniProt P29597); assay: TYK2 enzyme inhibition test (LANCE method); details: 1 μM test compound; read-out: TYK2 enzyme inhibitory activity (%, 1 μM)
T4 construct: purchased Invitrogen
T4 sequence (P29597 whole entry): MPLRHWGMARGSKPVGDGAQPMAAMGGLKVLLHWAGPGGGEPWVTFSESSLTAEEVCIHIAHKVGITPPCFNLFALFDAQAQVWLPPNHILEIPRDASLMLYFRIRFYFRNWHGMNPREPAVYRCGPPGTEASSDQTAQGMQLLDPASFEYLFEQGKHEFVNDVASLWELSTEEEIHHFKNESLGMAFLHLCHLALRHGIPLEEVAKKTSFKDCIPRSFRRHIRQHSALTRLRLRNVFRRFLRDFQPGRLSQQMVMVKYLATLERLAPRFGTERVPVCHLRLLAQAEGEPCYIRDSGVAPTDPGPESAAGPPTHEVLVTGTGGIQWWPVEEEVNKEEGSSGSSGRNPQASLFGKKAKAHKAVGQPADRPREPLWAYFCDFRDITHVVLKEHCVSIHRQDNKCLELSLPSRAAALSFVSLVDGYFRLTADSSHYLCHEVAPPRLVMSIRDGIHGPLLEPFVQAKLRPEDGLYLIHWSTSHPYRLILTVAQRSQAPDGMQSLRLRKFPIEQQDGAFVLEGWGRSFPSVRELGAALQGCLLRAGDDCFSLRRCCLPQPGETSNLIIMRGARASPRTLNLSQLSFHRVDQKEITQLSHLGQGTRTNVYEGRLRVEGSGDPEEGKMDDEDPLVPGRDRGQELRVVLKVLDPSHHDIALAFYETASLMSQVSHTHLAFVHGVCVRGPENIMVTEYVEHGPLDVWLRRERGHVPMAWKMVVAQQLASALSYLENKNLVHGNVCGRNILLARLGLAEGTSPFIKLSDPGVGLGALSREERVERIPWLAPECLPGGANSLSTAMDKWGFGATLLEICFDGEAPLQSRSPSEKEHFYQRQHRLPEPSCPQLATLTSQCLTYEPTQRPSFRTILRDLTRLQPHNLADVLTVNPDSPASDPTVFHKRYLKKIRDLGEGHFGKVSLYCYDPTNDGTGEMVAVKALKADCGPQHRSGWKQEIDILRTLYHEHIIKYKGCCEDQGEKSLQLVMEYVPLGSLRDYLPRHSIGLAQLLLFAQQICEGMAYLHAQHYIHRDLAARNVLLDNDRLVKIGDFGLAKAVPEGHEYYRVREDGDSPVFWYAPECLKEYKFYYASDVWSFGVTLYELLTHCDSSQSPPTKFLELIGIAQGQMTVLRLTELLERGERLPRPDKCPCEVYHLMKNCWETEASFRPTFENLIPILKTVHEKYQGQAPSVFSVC
Method: as §1, with “TYK2 enzyme” for “JAK1 enzyme”, “a TYK2” for “a JAK1”, “to 375” for “to 187.5”, “to 30” for “to 150”

T1 sequence (P23458 whole entry): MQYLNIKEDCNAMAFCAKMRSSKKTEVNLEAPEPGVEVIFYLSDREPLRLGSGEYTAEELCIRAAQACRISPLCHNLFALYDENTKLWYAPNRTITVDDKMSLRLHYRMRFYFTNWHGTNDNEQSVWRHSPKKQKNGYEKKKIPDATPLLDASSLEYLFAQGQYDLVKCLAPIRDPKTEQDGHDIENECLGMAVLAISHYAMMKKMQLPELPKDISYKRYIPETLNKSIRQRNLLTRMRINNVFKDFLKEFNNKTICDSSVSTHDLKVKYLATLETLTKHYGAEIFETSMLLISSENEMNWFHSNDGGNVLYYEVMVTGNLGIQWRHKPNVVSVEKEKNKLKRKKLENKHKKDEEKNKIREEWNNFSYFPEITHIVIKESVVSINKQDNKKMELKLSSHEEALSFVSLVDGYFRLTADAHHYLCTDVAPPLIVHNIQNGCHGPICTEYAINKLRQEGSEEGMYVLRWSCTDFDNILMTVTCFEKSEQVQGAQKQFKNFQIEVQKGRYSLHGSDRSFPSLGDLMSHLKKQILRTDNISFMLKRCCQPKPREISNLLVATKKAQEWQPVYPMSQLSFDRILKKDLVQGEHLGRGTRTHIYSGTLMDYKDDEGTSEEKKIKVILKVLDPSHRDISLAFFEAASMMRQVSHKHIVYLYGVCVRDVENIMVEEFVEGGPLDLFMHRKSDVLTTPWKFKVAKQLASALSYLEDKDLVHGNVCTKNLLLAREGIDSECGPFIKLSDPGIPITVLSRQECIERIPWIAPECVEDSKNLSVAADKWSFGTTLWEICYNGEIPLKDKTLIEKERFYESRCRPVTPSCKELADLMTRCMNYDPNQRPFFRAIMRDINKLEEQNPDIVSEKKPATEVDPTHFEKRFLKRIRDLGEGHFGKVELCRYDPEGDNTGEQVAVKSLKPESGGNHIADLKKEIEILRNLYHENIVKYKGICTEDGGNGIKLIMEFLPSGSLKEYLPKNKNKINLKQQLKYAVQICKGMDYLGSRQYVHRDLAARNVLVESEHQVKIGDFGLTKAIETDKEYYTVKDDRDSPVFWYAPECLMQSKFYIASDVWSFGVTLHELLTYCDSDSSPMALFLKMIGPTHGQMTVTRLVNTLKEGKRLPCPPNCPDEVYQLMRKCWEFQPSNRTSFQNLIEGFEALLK

| inhibition at 1 µM (JAK1) | inhibition at 1 µM (JAK2) | inhibition at 1 µM (JAK3) | inhibition at 1 µM (TYK2) | SMILES |
| --- | --- | --- | --- | --- |
| 97% | 99% | 99% | 100% | COCC(=O)N1CCN(c2cc(-c3cn([C@@H](C)C(C)C)c(=O)c4c(N)n[nH]c34)nn2C)CC1 [Example 17, 3-amino-7-(5-(4-(methoxyacetyl)piperazin-1-yl)-1-methyl-1H-pyrazol-3-yl)-5-((2S)-3-methylbutan-2-yl)-1,5-dihydro-4H-pyrazolo[4,3-c]pyridin-4-one] |
| 96% | 98% | 99% | 99% | CC(C)[C@H](C)n1cc(-c2cc(N3CCC(C)(O)CC3)n(C)n2)c2[nH]nc(N)c2c1=O [Example 18, 3-amino-7-(5-(4-hydroxy-4-methylpiperidin-1-yl)-1-methyl-1H-pyrazol-3-yl)-5-((2S)-3-methylbutan-2-yl)-1,5-dihydro-4H-pyrazolo[4,3-c]pyridin-4-one] |
| 98% | 98% | 99% | 99% | CC(C)[C@H](C)n1cc(-c2cc(N3CCCCC3)n(C)n2)c2[nH]nc(N)c2c1=O [Example 19, 3-amino-5-((2S)-3-methylbutan-2-yl)-7-(1-methyl-5-(piperidin-1-yl)-1H-pyrazol-3-yl)-1,5-dihydro-4H-pyrazolo[4,3-c]pyridin-4-one] |
| 95% | 98% | 100% | 99% | CC(C)[C@H](C)n1cc(-c2cc(N3CCC[C@H]3CO)n(C)n2)c2[nH]nc(N)c2c1=O [Example 20, 3-amino-7-(5-((2S)-2-(hydroxymethyl)pyrrolidin-1-yl)-1-methyl-1H-pyrazol-3-yl)-5-((2S)-3-methylbutan-2-yl)-1,5-dihydro-4H-pyrazolo[4,3-c]pyridin-4-one] |
| 97% | 98% | 99% | 99% | CC(C)[C@H](C)n1cc(-c2cc(N3CC[C@@H](O)C3)n(C)n2)c2[nH]nc(N)c2c1=O [Example 21, 3-amino-7-(5-((3R)-3-hydroxypyrrolidin-1-yl)-1-methyl-1H-pyrazol-3-yl)-5-((2S)-3-methylbutan-2-yl)-1,5-dihydro-4H-pyrazolo[4,3-c]pyridin-4-one] |
| 96% | 98% | 99% | 99% | CC(C)[C@H](C)n1cc(-c2cc(N3CCC[C@@H]3CO)n(C)n2)c2[nH]nc(N)c2c1=O [Example 22, 3-amino-7-(5-((2R)-2-(hydroxymethyl)pyrrolidin-1-yl)-1-methyl-1H-pyrazol-3-yl)-5-((2S)-3-methylbutan-2-yl)-1,5-dihydro-4H-pyrazolo[4,3-c]pyridin-4-one] |
| 97% | 98% | 99% | 99% | CC(C)[C@H](C)n1cc(-c2cc(N3CC[C@H](O)C3)n(C)n2)c2[nH]nc(N)c2c1=O [Example 23, 3-amino-7-(5-((3S)-3-hydroxypyrrolidin-1-yl)-1-methyl-1H-pyrazol-3-yl)-5-((2S)-3-methylbutan-2-yl)-1,5-dihydro-4H-pyrazolo[4,3-c]pyridin-4-one] |
| 96% | 98% | 99% | 100% | CO[C@@H]1CCN(c2cc(-c3cn([C@@H](C)C(C)C)c(=O)c4c(N)n[nH]c34)nn2C)C1 [Example 24, 3-amino-7-(5-((3R)-3-methoxypyrrolidin-1-yl)-1-methyl-1H-pyrazol-3-yl)-5-((2S)-3-methylbutan-2-yl)-1,5-dihydro-4H-pyrazolo[4,3-c]pyridin-4-one] |
| 98% | 98% | 99% | 100% | CO[C@H]1CCN(c2cc(-c3cn([C@@H](C)C(C)C)c(=O)c4c(N)n[nH]c34)nn2C)C1 [Example 25, 3-amino-7-(5-((3S)-3-methoxypyrrolidin-1-yl)-1-methyl-1H-pyrazol-3-yl)-5-((2S)-3-methylbutan-2-yl)-1,5-dihydro-4H-pyrazolo[4,3-c]pyridin-4-one] |
| 88% | 96% | 98% | 98% | COC[C@@H]1CCCN1c1cc(-c2cn([C@@H](C)C(C)C)c(=O)c3c(N)n[nH]c23)nn1C [Example 26, 3-amino-7-(5-((2S)-2-(methoxymethyl)pyrrolidin-1-yl)-1-methyl-1H-pyrazol-3-yl)-5-((2S)-3-methylbutan-2-yl)-1,5-dihydro-4H-pyrazolo[4,3-c]pyridin-4-one] |
